Results published in ChEMBL document CHEMBL1125332, “Synthesis and biological evaluation of 5'-sulfamoylated purinyl carbocyclic nucleosides” (J Med Chem, 1992).
≈ marks a conversion by molar mass, not a printed value.

test system: P388; assay: Cytotoxicity against P388 mouse leukemia cells; format: functional, cell-based

Point of comparison: `CNc1ncnc2c1ncn2C1CC(COS(N)(=O)=O)C(O)C1O` (centres undefined), IC50 4 µg/mL (≈ 11.2 µM). Against it:
- CN(C)c1ncnc2c1ncn2C1CC(COS(N)(=O)=O)C(O)C1O (centres undefined) — 18-fold higher, 74 µg/mL (≈ 199 µM)
- Nc1ncnc2c1ncn2C1CC(COS(N)(=O)=O)C(O)C1O (centres undefined) — 32-fold lower, 0.125 µg/mL (≈ 0.363 µM)
- CSc1ncnc2c1ncn2C1CC(COS(N)(=O)=O)C(O)C1O (centres undefined) — 12-fold higher, 50 µg/mL (≈ 133 µM)
- Nc1ncnc2c1ncn2[C@@H]1C[C@H](CO)[C@@H](O)[C@H]1O [ARISTEROMYCIN] — 8-fold lower, 0.5 µg/mL (≈ 1.88 µM)
- Nc1ncnc2c1nnn2C1CC(COS(N)(=O)=O)C(O)C1O (centres undefined) — 64-fold lower, 0.0625 µg/mL (≈ 0.181 µM)
- Nc1ncnc2c1ncn2COCCOS(N)(=O)=O — higher, > 100 µg/mL
- Nc1ncnc2c1nnn2C1CC(CO)C(O)C1O (centres undefined) — 8-fold lower, 0.5 µg/mL (≈ 1.88 µM)
- COc1ccc(C[C@H](N)C(=O)N[C@H]2[C@@H](O)[C@H](n3cnc4c(N(C)C)ncnc43)O[C@@H]2CO)cc1 [PUROMYCIN] — 8-fold lower, 0.5 µg/mL (≈ 1.06 µM)
